Results reported in ChEMBL document CHEMBL3991601, “The target landscape of clinical kinase drugs” (Science, 2017).
Calls of active or inactive are those of the source.

How the values were obtained:
[1] = target: RAC-alpha serine/threonine-protein kinase (Homo sapiens, UniProt P31749)
[2] = target: Citron Rho-interacting kinase (Homo sapiens, UniProt O14578)
dCTP pyrophosphatase 1 = target: T1, dCTP pyrophosphatase 1 (Homo sapiens, UniProt Q9H773)
T1 sequence (Q9H773 whole entry): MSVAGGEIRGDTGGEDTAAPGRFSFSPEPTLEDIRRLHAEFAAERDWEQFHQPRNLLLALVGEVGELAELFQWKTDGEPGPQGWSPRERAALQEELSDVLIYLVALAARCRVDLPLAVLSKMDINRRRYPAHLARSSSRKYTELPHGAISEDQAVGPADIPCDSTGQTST

[3] = target: Inosine-5'-monophosphate dehydrogenase 2 (Homo sapiens, UniProt P12268)
[4] = target: T2, Dual specificity mitogen-activated protein kinase kinase 3 (Homo sapiens, UniProt P46734)
T2 sequence (P46734 whole entry): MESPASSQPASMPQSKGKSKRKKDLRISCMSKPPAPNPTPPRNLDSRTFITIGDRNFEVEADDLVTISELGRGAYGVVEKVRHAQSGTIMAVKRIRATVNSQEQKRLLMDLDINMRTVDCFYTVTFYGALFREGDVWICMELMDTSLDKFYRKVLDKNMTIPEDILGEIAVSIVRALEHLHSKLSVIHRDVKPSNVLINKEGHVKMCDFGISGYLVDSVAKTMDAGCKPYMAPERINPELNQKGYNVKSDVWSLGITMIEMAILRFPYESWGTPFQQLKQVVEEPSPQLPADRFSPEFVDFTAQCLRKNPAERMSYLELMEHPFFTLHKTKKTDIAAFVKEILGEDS

[5] = target: T3, Mitogen-activated protein kinase kinase kinase 3 (Homo sapiens, UniProt Q99759)
T3 sequence (Q99759 whole entry): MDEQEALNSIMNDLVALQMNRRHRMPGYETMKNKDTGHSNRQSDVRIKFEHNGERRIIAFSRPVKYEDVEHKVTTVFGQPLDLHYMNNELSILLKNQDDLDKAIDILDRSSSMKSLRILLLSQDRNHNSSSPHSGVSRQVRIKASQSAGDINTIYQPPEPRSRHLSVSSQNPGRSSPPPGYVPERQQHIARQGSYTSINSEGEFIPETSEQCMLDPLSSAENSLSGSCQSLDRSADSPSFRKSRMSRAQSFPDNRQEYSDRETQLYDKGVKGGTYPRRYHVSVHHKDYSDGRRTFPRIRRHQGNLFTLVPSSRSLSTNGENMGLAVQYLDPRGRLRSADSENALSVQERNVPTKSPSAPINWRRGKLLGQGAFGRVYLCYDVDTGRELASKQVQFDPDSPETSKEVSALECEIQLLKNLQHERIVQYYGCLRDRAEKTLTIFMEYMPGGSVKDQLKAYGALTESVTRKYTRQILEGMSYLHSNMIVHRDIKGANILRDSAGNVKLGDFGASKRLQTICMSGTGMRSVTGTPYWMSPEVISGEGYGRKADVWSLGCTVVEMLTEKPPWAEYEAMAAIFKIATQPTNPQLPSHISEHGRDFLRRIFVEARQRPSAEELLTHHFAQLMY

[6] = target: T4, Dynamin-like GTPase OPA1, mitochondrial (Homo sapiens, UniProt O60313)
T4 sequence (O60313 whole entry): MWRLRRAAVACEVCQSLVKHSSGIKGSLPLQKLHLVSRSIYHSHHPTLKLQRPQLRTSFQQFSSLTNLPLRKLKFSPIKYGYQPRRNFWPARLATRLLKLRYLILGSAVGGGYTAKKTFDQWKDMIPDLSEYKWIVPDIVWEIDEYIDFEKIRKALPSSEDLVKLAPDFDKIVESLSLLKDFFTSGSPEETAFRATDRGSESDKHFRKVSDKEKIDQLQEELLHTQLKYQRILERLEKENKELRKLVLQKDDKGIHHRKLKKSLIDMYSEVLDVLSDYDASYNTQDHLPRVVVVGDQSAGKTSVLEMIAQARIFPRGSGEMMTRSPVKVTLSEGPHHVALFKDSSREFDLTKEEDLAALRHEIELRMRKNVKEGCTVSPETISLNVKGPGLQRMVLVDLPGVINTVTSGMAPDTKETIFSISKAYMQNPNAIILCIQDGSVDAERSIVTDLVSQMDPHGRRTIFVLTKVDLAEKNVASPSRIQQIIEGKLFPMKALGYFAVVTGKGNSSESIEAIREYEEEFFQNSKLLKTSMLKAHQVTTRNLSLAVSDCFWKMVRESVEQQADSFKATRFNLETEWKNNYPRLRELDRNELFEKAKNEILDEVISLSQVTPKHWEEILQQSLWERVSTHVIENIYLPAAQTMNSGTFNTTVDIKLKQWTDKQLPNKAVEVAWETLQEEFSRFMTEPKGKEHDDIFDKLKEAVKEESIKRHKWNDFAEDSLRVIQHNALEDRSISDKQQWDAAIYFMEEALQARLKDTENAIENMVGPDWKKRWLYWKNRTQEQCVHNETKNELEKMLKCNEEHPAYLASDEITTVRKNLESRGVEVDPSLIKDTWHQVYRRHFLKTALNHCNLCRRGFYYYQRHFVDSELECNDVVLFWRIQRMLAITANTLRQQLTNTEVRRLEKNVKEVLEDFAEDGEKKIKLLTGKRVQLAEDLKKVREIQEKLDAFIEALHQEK

ADP/ATP translocase 3 = target: T5, ADP/ATP translocase 3 (Homo sapiens, UniProt P12236)
T5 sequence (P12236 whole entry): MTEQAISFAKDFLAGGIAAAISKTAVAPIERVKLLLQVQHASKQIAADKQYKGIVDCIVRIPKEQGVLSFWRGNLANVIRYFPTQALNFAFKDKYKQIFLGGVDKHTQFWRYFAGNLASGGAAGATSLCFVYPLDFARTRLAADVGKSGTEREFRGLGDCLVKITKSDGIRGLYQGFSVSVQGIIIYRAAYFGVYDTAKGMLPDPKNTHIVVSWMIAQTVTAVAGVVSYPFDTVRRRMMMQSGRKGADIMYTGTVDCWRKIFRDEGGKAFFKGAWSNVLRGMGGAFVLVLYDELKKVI

DNA topoisomerase 2-beta = DNA topoisomerase 2-beta (Homo sapiens, UniProt Q02880)
Chain of DNA topoisomerase 2-beta (Q02880 whole entry): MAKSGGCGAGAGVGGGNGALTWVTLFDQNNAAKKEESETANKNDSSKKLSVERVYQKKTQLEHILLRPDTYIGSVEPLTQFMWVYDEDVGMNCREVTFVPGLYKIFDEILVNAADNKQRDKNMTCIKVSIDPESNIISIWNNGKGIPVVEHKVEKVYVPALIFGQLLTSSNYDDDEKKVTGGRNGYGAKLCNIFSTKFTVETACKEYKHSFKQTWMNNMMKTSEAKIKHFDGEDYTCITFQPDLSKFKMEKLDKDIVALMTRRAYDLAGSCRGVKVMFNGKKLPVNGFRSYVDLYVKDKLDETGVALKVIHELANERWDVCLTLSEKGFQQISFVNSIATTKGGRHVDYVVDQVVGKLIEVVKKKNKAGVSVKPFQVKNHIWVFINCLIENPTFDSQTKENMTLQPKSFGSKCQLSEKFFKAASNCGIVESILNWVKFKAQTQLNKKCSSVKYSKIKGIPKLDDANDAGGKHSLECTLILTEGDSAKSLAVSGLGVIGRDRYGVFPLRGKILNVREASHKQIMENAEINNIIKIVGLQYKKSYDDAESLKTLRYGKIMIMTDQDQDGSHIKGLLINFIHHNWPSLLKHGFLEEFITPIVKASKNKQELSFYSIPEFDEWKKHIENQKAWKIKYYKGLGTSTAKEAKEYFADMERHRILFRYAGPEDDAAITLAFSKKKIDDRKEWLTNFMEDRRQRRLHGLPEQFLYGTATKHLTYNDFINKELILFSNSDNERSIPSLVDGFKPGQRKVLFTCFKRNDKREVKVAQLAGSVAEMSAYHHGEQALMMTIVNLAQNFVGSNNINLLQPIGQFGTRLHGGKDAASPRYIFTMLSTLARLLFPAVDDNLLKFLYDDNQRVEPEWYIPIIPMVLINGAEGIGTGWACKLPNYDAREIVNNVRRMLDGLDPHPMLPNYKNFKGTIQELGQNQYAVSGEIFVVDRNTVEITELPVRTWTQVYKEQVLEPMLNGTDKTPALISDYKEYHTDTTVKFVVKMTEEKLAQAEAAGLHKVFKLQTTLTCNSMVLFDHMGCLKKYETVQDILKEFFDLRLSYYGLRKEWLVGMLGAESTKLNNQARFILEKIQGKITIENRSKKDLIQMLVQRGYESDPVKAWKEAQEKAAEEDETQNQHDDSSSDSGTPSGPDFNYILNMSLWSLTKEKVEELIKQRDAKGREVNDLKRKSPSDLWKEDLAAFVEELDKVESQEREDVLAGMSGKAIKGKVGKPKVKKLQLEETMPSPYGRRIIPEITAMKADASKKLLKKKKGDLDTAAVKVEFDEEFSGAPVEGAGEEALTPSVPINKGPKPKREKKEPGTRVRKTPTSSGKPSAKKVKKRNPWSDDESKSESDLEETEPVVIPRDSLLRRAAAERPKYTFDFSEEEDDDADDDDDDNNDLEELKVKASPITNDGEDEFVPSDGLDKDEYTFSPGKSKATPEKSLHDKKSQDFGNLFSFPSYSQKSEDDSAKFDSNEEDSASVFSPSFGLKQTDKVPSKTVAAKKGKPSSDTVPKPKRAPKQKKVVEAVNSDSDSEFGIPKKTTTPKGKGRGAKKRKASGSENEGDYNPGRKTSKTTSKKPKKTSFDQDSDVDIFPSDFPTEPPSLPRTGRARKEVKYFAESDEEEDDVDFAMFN

Wee1-like protein kinase = Wee1-like protein kinase (Homo sapiens, UniProt P30291)
[7] = target: Tyrosine-protein kinase BTK (Homo sapiens, UniProt Q06187)
Chain of Tyrosine-protein kinase BTK (Q06187 whole entry): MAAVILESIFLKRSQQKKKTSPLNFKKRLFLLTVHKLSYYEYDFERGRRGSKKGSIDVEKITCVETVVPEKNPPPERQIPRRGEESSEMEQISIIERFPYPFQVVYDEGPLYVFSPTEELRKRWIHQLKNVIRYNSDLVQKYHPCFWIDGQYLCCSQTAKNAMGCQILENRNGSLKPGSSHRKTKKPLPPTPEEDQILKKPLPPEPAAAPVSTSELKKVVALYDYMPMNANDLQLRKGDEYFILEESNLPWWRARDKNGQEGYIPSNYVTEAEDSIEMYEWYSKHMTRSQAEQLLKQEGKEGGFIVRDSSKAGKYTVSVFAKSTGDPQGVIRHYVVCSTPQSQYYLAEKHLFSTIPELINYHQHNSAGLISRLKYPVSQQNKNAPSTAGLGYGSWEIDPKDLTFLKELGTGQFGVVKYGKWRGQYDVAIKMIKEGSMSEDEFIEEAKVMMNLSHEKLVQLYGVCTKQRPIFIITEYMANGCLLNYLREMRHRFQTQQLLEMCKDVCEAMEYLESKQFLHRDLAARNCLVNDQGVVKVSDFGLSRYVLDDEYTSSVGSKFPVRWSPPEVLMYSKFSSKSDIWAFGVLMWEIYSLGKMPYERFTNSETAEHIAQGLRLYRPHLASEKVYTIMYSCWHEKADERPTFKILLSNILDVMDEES

[8] = target: Mitogen-activated protein kinase kinase kinase kinase 4 (Homo sapiens, UniProt O95819)
[9] = target: 5'-AMP-activated protein kinase catalytic subunit alpha-1 (Homo sapiens, UniProt Q13131)
Chain of 5'-AMP-activated protein kinase catalytic subunit alpha-1 (Q13131 whole entry): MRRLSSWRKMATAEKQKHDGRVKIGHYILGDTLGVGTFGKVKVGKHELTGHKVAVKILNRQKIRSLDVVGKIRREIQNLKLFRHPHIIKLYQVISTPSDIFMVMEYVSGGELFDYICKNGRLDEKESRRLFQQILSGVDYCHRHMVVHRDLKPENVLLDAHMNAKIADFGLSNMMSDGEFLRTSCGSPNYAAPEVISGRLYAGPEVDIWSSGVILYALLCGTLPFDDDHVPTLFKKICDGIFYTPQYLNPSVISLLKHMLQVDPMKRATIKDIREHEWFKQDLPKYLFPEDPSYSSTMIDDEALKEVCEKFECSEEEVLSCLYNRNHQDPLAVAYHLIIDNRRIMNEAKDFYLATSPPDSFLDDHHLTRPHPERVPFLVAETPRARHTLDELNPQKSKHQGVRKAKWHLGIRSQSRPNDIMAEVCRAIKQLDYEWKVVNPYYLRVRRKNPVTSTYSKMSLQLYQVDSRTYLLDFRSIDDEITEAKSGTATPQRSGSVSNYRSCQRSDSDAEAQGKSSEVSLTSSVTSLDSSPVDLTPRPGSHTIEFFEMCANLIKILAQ
Note: in the data inactive means no Kd found up to 30 µM.

Chain of Citron Rho-interacting kinase (O14578 whole entry): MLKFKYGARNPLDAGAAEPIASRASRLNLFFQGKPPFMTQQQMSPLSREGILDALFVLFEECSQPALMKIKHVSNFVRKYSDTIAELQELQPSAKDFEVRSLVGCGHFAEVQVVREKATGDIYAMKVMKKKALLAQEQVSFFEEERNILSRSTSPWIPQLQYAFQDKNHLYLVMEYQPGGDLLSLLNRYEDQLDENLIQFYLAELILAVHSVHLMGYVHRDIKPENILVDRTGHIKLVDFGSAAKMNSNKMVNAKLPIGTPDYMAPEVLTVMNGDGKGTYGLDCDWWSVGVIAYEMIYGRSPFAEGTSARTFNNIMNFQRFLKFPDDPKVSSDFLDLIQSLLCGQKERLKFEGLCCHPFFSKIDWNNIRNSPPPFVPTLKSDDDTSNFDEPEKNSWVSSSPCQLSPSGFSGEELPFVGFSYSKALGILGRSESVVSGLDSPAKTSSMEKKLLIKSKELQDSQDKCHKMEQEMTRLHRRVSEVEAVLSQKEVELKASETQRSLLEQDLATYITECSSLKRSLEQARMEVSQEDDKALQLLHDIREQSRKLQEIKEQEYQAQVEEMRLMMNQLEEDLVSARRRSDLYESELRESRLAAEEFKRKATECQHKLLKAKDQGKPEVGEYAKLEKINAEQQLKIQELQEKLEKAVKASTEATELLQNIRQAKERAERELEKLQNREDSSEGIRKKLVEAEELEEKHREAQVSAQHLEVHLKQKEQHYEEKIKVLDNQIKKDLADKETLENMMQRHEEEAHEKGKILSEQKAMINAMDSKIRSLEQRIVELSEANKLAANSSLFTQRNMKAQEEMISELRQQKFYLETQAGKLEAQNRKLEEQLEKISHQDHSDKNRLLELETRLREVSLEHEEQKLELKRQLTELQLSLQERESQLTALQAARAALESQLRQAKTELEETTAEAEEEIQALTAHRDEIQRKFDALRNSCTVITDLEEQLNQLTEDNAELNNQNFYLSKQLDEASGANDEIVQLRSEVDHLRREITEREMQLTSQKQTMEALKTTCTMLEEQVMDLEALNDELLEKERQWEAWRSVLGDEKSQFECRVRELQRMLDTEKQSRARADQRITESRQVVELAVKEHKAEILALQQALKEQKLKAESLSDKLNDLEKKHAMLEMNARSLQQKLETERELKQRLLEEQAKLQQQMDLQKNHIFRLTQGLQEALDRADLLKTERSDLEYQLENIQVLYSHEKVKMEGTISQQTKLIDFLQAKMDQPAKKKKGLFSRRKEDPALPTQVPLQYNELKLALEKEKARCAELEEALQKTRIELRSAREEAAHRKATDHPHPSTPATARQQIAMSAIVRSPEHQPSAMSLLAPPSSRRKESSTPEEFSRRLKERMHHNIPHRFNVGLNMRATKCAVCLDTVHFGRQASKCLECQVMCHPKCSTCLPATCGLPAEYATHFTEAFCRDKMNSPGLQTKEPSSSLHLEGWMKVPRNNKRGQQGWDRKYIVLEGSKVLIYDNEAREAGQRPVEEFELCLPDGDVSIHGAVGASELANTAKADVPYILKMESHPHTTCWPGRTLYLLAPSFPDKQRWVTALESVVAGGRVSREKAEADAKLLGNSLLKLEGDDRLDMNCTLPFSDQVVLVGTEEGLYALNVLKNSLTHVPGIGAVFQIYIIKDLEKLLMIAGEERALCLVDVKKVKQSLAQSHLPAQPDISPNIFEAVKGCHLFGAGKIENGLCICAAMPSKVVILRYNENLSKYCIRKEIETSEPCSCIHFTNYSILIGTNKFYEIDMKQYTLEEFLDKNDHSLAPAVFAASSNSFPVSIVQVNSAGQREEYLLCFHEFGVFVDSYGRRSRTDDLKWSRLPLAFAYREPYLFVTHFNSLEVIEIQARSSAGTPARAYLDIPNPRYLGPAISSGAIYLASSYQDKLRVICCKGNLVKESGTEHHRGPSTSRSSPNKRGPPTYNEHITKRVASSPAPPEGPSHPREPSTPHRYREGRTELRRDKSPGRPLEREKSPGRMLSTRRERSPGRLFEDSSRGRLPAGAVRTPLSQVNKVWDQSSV

| Kd (dCTP pyrophosphatase 1) | Kd [3] | Kd [6] | Kd (ADP/ATP translocase 3) | Kd (DNA topoisomerase 2-beta) | SMILES | Kd [1] | Kd [2] | Kd [4] | Kd [5] | Kd (Wee1-like protein kinase) | Kd [7] | Kd [8] | Kd [9] |
| --- | --- | --- | --- | --- | --- | --- | --- | --- | --- | --- | --- | --- | --- |
| > 30 µM (inactive) | > 30 µM (inactive) | > 30 µM (inactive) | > 30 µM (inactive) | > 30 µM (inactive) | CN(C)C/C=C/C(=O)Nc1cc2c(Nc3ccc(F)c(Cl)c3)ncnc2cc1O[C@H]1CCOC1 [AFATINIB] | – | – | – | – | – | – | – | – |
| > 30 µM (inactive) | > 30 µM (inactive) | > 30 µM (inactive) | > 30 µM (inactive) | > 30 µM (inactive) | CCN(CCCOc1ccc2c(Nc3cc(CC(=O)Nc4cccc(F)c4)n[nH]3)ncnc2c1)CCOP(=O)(O)O [BARASERTIB] | > 30 µM (inactive) | > 30 µM (inactive) | > 30 µM (inactive) | > 30 µM (inactive) | > 30 µM (inactive) | – | – | – |
| > 30 µM (inactive) | > 30 µM (inactive) | > 30 µM (inactive) | > 30 µM (inactive) | > 30 µM (inactive) | C[C@@]1(C(=O)Nc2ccc(F)nc2)CCCN1c1nc(Nc2cc(C3CC3)n[nH]2)c2cccn2n1 [BMS-754807] | – | – | – | – | – | – | – | – |
| > 30 µM (inactive) | > 30 µM (inactive) | > 30 µM (inactive) | > 30 µM (inactive) | > 30 µM (inactive) | CCOc1ccn(-c2ccc(F)cc2)c(=O)c1C(=O)Nc1ccc(Oc2ccnc(N)c2Cl)c(F)c1 [BMS-777607] | > 30 µM (inactive) | > 30 µM (inactive) | – | > 30 µM (inactive) | > 30 µM (inactive) | – | – | – |
| > 30 µM (inactive) | > 30 µM (inactive) | > 30 µM (inactive) | > 30 µM (inactive) | > 30 µM (inactive) | Cn1c(=O)n(-c2ccc(C(C)(C)C#N)cc2)c2c3cc(-c4cnc5ccccc5c4)ccc3ncc21 [DACTOLISIB] | – | > 30 µM (inactive) | > 30 µM (inactive) | > 30 µM (inactive) | > 30 µM (inactive) | – | – | – |
| > 30 µM (inactive) | > 30 µM (inactive) | > 30 µM (inactive) | > 30 µM (inactive) | > 30 µM (inactive) | CC1(C)CNc2cc(NC(=O)c3cccnc3NCc3ccncc3)ccc21 [MOTESANIB] | – | – | – | – | – | – | – | – |
| > 30 µM (inactive) | > 30 µM (inactive) | > 30 µM (inactive) | > 30 µM (inactive) | > 30 µM (inactive) | Cn1cnc2c(F)c(Nc3ccc(Br)cc3Cl)c(C(=O)NOCCO)cc21 [SELUMETINIB] | – | – | – | – | – | – | – | – |

The remaining lines, values behind:

| SMILES | Kd (dCTP pyrophosphatase 1) | Kd [3] | Kd [6] | Kd (ADP/ATP translocase 3) | Kd (DNA topoisomerase 2-beta) | Kd [1] | Kd [2] | Kd [4] | Kd [5] | Kd (Wee1-like protein kinase) | Kd [7] | Kd [8] | Kd [9] |
| --- | --- | --- | --- | --- | --- | --- | --- | --- | --- | --- | --- | --- | --- |
| C=CCn1c(=O)c2cnc(Nc3ccc(N4CCN(C)CC4)cc3)nc2n1-c1cccc(C(C)(C)O)n1 [ADAVOSERTIB] | > 30 µM (inactive) | > 30 µM (inactive) | > 30 µM (inactive) | > 30 µM (inactive) | > 30 µM (inactive) | > 30 µM (inactive) | > 30 µM (inactive) | > 30 µM (inactive) | > 30 µM (inactive) | – | – | – | – |
| COc1cc2c(Oc3ccc4[nH]c(C)cc4c3F)ncnc2cc1OCCCN1CCCC1 [CEDIRANIB] | > 30 µM (inactive) | > 30 µM (inactive) | > 30 µM (inactive) | > 30 µM (inactive) | > 30 µM (inactive) | – | – | – | – | – | – | – | – |
| CNC(=O)c1ccc(Nc2ncc(C(F)(F)F)c(NCc3nccnc3N(C)S(C)(=O)=O)n2)cc1 [DEFACTINIB] | > 30 µM (inactive) | – | > 30 µM (inactive) | > 30 µM (inactive) | > 30 µM (inactive) | > 30 µM (inactive) | > 30 µM (inactive) | > 30 µM (inactive) | > 30 µM (inactive) | – | > 30 µM (inactive) | > 30 µM (inactive) | > 30 µM (inactive) |
| O=S(=O)(c1cccc2cnccc12)N1CCCNCC1 [FASUDIL] | > 30 µM (inactive) | > 30 µM (inactive) | > 30 µM (inactive) | > 30 µM (inactive) | > 30 µM (inactive) | – | 48.9 µM (active) | > 30 µM (inactive) | > 30 µM (inactive) | > 30 µM (inactive) | – | – | – |
| C[C@]1(O)C[C@@H](c2nc(-c3ccc4ccc(-c5ccccc5)nc4c3)c3c(N)nccn32)C1 [LINSITINIB] | > 30 µM (inactive) | > 30 µM (inactive) | > 30 µM (inactive) | > 30 µM (inactive) | > 30 µM (inactive) | – | > 30 µM (inactive) | > 30 µM (inactive) | > 30 µM (inactive) | > 30 µM (inactive) | – | – | – |
| N#CCNC(=O)c1ccc(-c2ccnc(Nc3ccc(N4CCOCC4)cc3)n2)cc1 [MOMELOTINIB] | > 30 µM (inactive) | > 30 µM (inactive) | – | > 30 µM (inactive) | > 30 µM (inactive) | > 30 µM (inactive) | 0.313 µM (active) | > 30 µM (inactive) | > 30 µM (inactive) | – | > 30 µM (inactive) | – | > 30 µM (inactive) |
| CN(c1ncccc1CNc1nc(Nc2ccc3c(c2)CC(=O)N3)ncc1C(F)(F)F)S(C)(=O)=O [PF-00562271] | > 30 µM (inactive) | > 30 µM (inactive) | > 30 µM (inactive) | > 30 µM (inactive) | > 30 µM (inactive) | – | > 30 µM (inactive) | > 30 µM (inactive) | > 30 µM (inactive) | > 30 µM (inactive) | – | – | – |
| CN1CCN(c2nc(C3=C(c4c[nH]c5ccccc45)C(=O)NC3=O)c3ccccc3n2)CC1 [SOTRASTAURIN] | > 30 µM (inactive) | – | > 30 µM (inactive) | > 30 µM (inactive) | > 30 µM (inactive) | > 30 µM (inactive) | > 30 µM (inactive) | > 30 µM (inactive) | > 30 µM (inactive) | > 30 µM (inactive) | > 30 µM (inactive) | – | > 30 µM (inactive) |
| COc1cc2c(N3CCN(C(=O)Nc4ccc(OC(C)C)cc4)CC3)ncnc2cc1OCCCN1CCCCC1 [TANDUTINIB] | > 30 µM (inactive) | – | > 30 µM (inactive) | > 30 µM (inactive) | > 30 µM (inactive) | – | – | – | – | – | – | – | – |
